Data from patent US8580747B2, “Cyclic natriuretic peptide constructs” (Palatin Technologies, Inc., priority 2006, dated 2013).
Where two headings read alike, the source gives them in different places. Bridge positions count the residues as written; N and C are the ends. Square brackets hold non-standard residues; d marks the D form. Peptide text beside a SMILES is read from it. * marks the point of attachment. Piperazin2one(3S-Bu,6R-CO) = CCCC[C@@H]1NC[C@H](C(=O)*)NC1=O; X1 = N=C(N)NCCC[C@H]1C(=O)N[C@@H](C(N)=O)CN1*; Heptanoyl = CCCCCCC(=O)*; Nle = CCCC[C@H](N)C(=O)O; Orn = NCCC[C@H](N)C(=O)O

Experiments:
[1] = rat, in vivo, sc
[2] = biological target: T1, NEP (neutral endopeptidase) (Homo sapiens, UniProt P08473); experiment: hNEP resistance assay (digestion by neutral endopeptidase); type: in vitro ADME; settings: pH 7.4
T1 construct: purchased R&D Systems, Minneapolis, Minn; 1182-ZN
T1 sequence (P08473 52-750 limits assumed): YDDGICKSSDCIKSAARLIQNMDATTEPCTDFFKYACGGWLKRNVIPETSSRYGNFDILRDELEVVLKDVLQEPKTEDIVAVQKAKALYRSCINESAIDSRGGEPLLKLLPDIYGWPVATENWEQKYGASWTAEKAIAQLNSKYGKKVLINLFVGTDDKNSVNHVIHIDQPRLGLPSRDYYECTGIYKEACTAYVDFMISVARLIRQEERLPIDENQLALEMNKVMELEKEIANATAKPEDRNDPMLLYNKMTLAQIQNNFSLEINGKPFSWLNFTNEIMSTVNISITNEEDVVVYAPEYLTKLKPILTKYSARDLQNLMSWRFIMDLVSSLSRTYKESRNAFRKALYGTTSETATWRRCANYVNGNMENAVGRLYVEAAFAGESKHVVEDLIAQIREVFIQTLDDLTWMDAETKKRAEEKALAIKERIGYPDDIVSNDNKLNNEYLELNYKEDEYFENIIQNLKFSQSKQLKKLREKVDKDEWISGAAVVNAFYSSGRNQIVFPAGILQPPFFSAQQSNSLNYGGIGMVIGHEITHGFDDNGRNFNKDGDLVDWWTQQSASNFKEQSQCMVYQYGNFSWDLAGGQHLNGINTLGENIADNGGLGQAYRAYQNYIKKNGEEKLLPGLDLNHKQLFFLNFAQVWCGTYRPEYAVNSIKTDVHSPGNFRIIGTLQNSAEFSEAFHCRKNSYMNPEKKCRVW
Description: NEP resistance of various constructs of the invention was evaluated using the following experimental procedure. All constructs were diluted in 0.1 M Tris-HCL buffer (pH 7.4) to 100 μM. 40 μL of diluted constructs were added to each tube and all tubes were kept on ice. 40 μL of diluted NEP, either human recombinant NEP (R&D Systems, Minneapolis, Minn., catalogue #1182-ZN) at 8 ng/μL or mouse NEP (R&D Systems, catalog #1126-ZN) at 2.5 ng/μL, was added to each tube. The tubes were mixed gently and spun. […] At the end of the incubation time, the reaction was stopped by adding 5 μL of 10% TFA. […] The extent to which NEP was active against the constructs was then analyzed by HPLC and/or LC/MS. Data analysis included determining the percent of remaining starting material, i.e., undigested peptide construct, and the percent and sequence of each proteolytic fragment.

[3] = rat, in vivo, iv
[4] = human, isolated enzyme neprilysin

clearance [3] | AUC ([3]; 0.3 mg/kg) | Vd ([3]; 0.3 mg/kg) | clearance ([3]; 0.3 mg/kg) | half-life ([3]; 0.3 mg/kg) | AUC ([3]; 2 mg/kg) | Vd ([3]; 2 mg/kg) | clearance ([3]; 2 mg/kg) | half-life ([3]; 2 mg/kg) | SMILES | other results
203 mL/min/kg | 0.033 µM·h | 5.8 L/kg | 546 mL/min/kg | 18 min | 0.067 µM·h | 4.6 L/kg | 290 mL/min/kg | 18 min | CCCCCCC(=O)N[C@H]1CSSC[C@@H](C(=O)N[C@@H](Cc2ccc(O)cc2)C(=O)N2C[C@H](C(N)=O)NC(=O)[C@@H]2CCCNC(=N)N)NC(=O)[C@H](CO)NC(=O)[C@H]([C@@H](C)CC)NC(=O)[C@H](CCCNC(=N)N)NC(=O)[C@H](CC(=O)O)NC(=O)[C@H](CCCC)NC(=O)[C@H](CCCNC(=N)N)NC(=O)CNC(=O)CNC(=O)[C@H](Cc2ccccc2)NC(=O)[C@H](Cc2c[nH]cn2)NC1=O [1-63] (Heptanoyl-CHFGGR[Nle]DRISCY-X1; disulfide 1-12) | AUC ([1]; 1 mg/kg): 0.007 µM·h; Cmax ([1]; 1 mg/kg): 26 nM; Tmax ([1]; 1 mg/kg): 6 min; half-life ([1]; 1 mg/kg): 12 min; remaining at 1 h, 50 µM [2, 4]: 67%; remaining at 2 h, 50 µM [2, 4]: 44%
21 mL/min/kg | 0.116 µM·h | 0.2 L/kg | 15 mL/min/kg | 12 min | 0.828 µM·h | 0.3 L/kg | 21 mL/min/kg | 18 min | CCCC[C@@H]1NC[C@H](C(=O)N[C@H]2CSSC[C@@H](C(=O)N[C@@H](Cc3ccc(O)cc3)C(=O)N3C[C@H](C(N)=O)NC(=O)[C@@H]3CCCNC(=N)N)NC(=O)[C@H](CO)NC(=O)[C@H]([C@@H](C)CC)NC(=O)[C@H](CCCN)NC(=O)[C@H](CC(=O)O)NC(=O)[C@H](CCCC)NC(=O)[C@H](CCCNC(=N)N)NC(=O)CNC(=O)CNC(=O)[C@H](Cc3ccccc3)NC(=O)[C@H](Cc3c[nH]cn3)NC2=O)NC1=O [1-55] ({Piperazin2one(3S-Bu,6R-CO)}-CHFGGR[Nle]D[Orn]ISCY-X1; disulfide 1-12) | AUC ([1]; 5 mg/kg): 0.232 µM·h; Cmax ([1]; 5 mg/kg): 250 nM; Tmax ([1]; 5 mg/kg): 18 min; half-life ([1]; 5 mg/kg): 30 min; remaining at 1 h, 50 µM ([2]; human recombinant NEP (neutral endopeptidase), incubation with human recombinant NEP at 37° C., 1 h, read-out: hNEP % of Starting Material 1 h): 83%; remaining at 2 h, 50 µM ([2]; human recombinant NEP (neutral endopeptidase), incubation with human recombinant NEP at 37° C., 2 h, read-out: hNEP % of Starting Material 2 h): 70%
